Marks after values point to notes of the source that are not given here.
Assays:
[1] = Determination of blood and brain tissue binding (equilibrium dialysis); format: in vitro ADME, Sprague Dawley rat; conditions: Sprague Dawley, 5 h at 37° C.; for fraction unbound at 5 h, 5 micromolar: 1:2 (w/v) in artificial CSF, rat brain homogenate, read-out: % FU Brain; for fraction unbound at 5 h, 0.5 micromolar: whole blood diluted 1:1 (v/v) with isotonic phosphate buffer, rat whole blood, read-out: % FU Blood
Description: Sprague Dawley rat whole blood, collected on the week of the experiment using K3-EDTA as an anti-coagulant, is diluted with isotonic phosphate buffer 1:1 (v/v). Sprague Dawley rat whole brain, stored frozen at −20° C., is thawed and homogenised in artificial cerebrospinal fluid (CSF) 1:2 (w/v).
An appropriate amount of test compound is dissolved in DMSO to give a 10 millimolar solution. Further dilutions, to obtain a 166.7 micromolar working solution are then prepared using 50% acetonitrile in MilliQ water. This working solution is used to spike the blood to obtain a final concentration of 0.5 micromolar in whole blood. Similarly, the working solution is used to spike brain samples to obtain a final concentration of 5 micromolar in whole brain. From these spiked blood and brain preparations, control samples (n=3), are immediately extracted and used to calculate the initial recovery of the test items.
150 microL of compound-free buffer (isotonic phosphate buffer for blood or artificial CSF buffer for brain) is dispensed in one half-well and 150 microL of spiked matrix (blood or brain) is loaded in the other half-well, with the two halves separated by a semi-permeable membrane. After an equilibration period of 5 h at 37° C., 50 microL of dialysed matrix (blood or brain) is added to 50 microL of corresponding compound-free buffer, and vice-versa for buffer, such that the volume of buffer to matrix (blood or brain) remains the same. Samples are then extracted by protein precipitation with 300 microL of acetonitrile containing rolipram (control for positive ionization mode) or diclofenac (control for negative ionization mode) as internal standards and centrifuged for 10 min at 3000 rpm. Supernatants are collected (100 microL), diluted with 27% AcN in MilliQ water (200 microL) and then injected into an HPLC-MS/MS or UPLC-MS/MS system to determine the concentration of test compound present.
Blood and brain tissue binding are then determined using the following formulas:
where Afu=apparent fraction unbound; Buffer=analyte/internal standard ratio determined in the buffer compartment; Blood=analyte/internal standard ratio determined in the blood compartment; Brain=analyte/internal standard ratio determined in the brain compartment.
where: fucr=Fraction unbound corrected; D=matrix dilution factor (D=2 for blood and D=3 for brain). then: […]

[2] = In vitro metabolic stability, rat liver microsomes; format: in vitro ADME; conditions: CLint expressed as mL/min/g liver
Description: (§1) The objective of this study was to determine metabolic stability of test items in rat and human liver microsomes. Verapamil and dextromethorphan were used as positive controls for microsomal incubation.
(§2) Incubation medium was prepared by combining 11.2 mL of potassium phosphate monobasic and 38.8 mL of potassium phosphate dibasic, diluted to 1 L with water. Cryopreserved microsomes were thawed and kept on ice until use. Microsomes were then diluted in incubation to a protein concentration of 0.56 mg/mL. […]
(§3) NADPH regenerating system solution was prepared by dissolving 1.7 mg of NADP, 7.8 mg of G6P and 6 units of G6P-Dehydrogenase in 1 mL of 2% sodium bicarbonate solution (prepared by dissolving 20 g of NaHCO3 in 1 L of water).
(§4) Test compounds were separately dissolved in DMF to obtain 10 mM stock solutions that were further diluted in water/acetonitrile 50/50 (v/v) to obtain the corresponding 50 μM working solutions. Verapamil and dextromethorphan were dissolved in DMF in order to obtain a 10 mM verapamil solution and 10 mM dextromethorphan solution. These solutions were then diluted in the incubation medium in order to obtain a 50 μM verapamil working solution and a 50 μM dextromethorphan working solution.
(§5) 800 μL-aliquots of NADPH regenerating system were pre-warmed at 37° C. for 5 minutes. 5 μL of 50 µM test compounds, verapamil or dextromethorphan were added to 445 μL of the 0.56 mg/mL microsomes solution and the incubation mixture was pre-warmed in a 96 deep well 2 mL plate (incubation plate) at 37° C. for 5 minutes. The incubation reactions were initiated by adding 50 μL of pre-warmed NADPH regenerating system to the incubation mixtures. 50 μL aliquots were taken from incubation mixtures at: 0, 3, 6, 9, 15, and 30 minutes and the reactions were stopped by adding 100 μL of aceronitrile with the corresponding internal standard. Samples were then diluted with 120 μL of water (final organic solvent percentage at 37%) and centrifuged at 3000 rpm for 10 minutes, prior the LC-MS/MS analysis.
(§6) Metabolic stability was calculated from the peak area ratio of the remaining test compound with internal standard versus time. The intrinsic clearance (CLint) was determined from the first order elimination constant k (min^−1) (obtained from GraphPad by plotting the natural logarithm of the peak area ratio of the remaining test item with internal standard versus time), using the actual volume of the incubation V (mL), the amount of hepatocytes in the incubation M (million cells) and the hepatocellularity number per a liver Hn (120 for human).

[3] = In vitro metabolic stability, human liver microsomes; format: in vitro ADME; conditions: CLint expressed as mL/min/g liver
Description: as §1, §2, §3, §4, §5, §6

Kv3.1 = biological target: T1, Kv3.1 (Homo sapiens, UniProt P48547); conditions: Table 5, RE12 and RE13; based on EC50 value as reported in WO2021214090; cited from earlier work
T1 sequence (P48547 1-511): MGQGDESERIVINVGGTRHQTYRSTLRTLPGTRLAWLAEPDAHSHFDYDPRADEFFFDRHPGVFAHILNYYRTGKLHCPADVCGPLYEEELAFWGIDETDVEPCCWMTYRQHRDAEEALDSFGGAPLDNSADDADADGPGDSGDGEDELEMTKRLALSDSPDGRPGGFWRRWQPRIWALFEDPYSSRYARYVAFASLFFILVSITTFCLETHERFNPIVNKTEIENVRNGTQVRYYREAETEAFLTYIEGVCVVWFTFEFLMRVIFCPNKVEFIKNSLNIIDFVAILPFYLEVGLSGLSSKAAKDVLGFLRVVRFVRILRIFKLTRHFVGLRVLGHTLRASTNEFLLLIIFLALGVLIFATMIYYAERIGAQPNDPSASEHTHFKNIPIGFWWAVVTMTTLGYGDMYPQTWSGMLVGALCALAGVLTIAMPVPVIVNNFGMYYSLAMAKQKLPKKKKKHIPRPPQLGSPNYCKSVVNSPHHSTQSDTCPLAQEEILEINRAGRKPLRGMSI

Row | Structure (SMILES) | fraction unbound at 5 h, 5 micromolar [1] | fraction unbound at 5 h, 0.5 micromolar [1] | Cli rat [2] [mL/min/g] | Cli human [3] [mL/min/g] | Kv3.1 pEC50 (Kv3.1)
1 | Cc1ccc(Oc2ccc(-n3c(=O)[nH]c4cncnc43)cn2)cc1OC(F)(F)F [RE12, reference compound] | 0.006 | 0.007 | 1.5 | 1.7 | 5.2*
2 | Cc1ccc(Oc2ccc(-n3c(=O)[nH]c4cnccc43)cn2)cc1OC(F)(F)F [RE13, reference compound] | 0.005 | 0.013 | 1.3 | 0.6 | 5.6**
